Assay results reported in US20240301319A1, “PERFUMING COMPOSITIONS” (FIRMNICH SA, priority 2017, published 2024).
Like-named read-outs stand apart in the source and are kept apart here. Values belong to the molecule of their own block, whether it stands above or below them.

What was measured:
[1] = Odor threshold and odor value of perfuming compounds (Tables 4 to 10)
[2] = Volatility of perfuming compounds (Tables 4 to 10), with top/middle/bottom note type; type: physicochemical
Procedure, shortened: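 Note type follows from air volatility (μg/l): bottom 49–0.1, middle 99–50, top 70,000–100. Compounds are listed within watery, green, fruity, citrus, sweet, gourmand and woody families.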

[3] = Table 10, perfuming compounds having a woody note, note type by volatility
[4] = Table 6, perfuming compounds having a fruity note
[5] = Table 7, citrus note, equals volatility divided by odor threshold
[6] = Table 6, perfuming compounds having a fruity note, note type by volatility
[7] = Table 7, citrus note, top, middle or bottom note
[8] = Table 8, perfuming compounds having a sweet note
[9] = Table 8, perfuming compounds having a sweet note, note type by volatility
[10] = Table 9, perfuming compounds having a gourmand note, note type by volatility
[11] = perfuming compounds having a green note
[12] = note type (Top/Middle/Bottom) by volatility, perfuming compounds having a green note
[13] = Table 4, watery note, equals volatility divided by odor threshold
[14] = Table 4, watery note, top, middle or bottom note

SMILES: CC(C)(C)C1CCC(=O)CC1 [4-(2-methyl-2-propanyl)cyclohexanone]
- Odor Threshold ([1]; Table 10, woody note): 1.15E−01 μg/l air
- Type [2, 3]: Top
- Volatility ([2]; Table 10, woody note): 755.28 μg/l air

SMILES: CC(C)(O)CCC1CCCCC1 [4-CYCLOHEXYL-2-METHYL-2-BUTANOL]
- Odor Threshold [1, 4]: 2.83E−02 μg/l air
- Odor Value [1, 4]: 2.81E+03
- Odor Threshold (μg/l air) ([1]; Table 7, citrus note): 2.83E−02 μg/l air
- Odor Value [1, 5]: 2.81E+03
- Volatility [2, 4]: 79.34 μg/l air
- Type [2, 6]: Middle
- Volatility (μg/l air) ([2]; Table 7, citrus note): 79.34 μg/l air
- Type [2, 7]: Middle

SMILES: COc1ccc(COC(C)=O)cc1 [4-METHOXYBENZYL ACETATE]
- Odor Threshold [1, 4]: 9.24E−05 μg/l air
- Odor Value [1, 4]: 1.90E+05
- Volatility [2, 4]: 17.59 μg/l air
- Type [2, 6]: Bottom

SMILES: COc1cc(C=O)ccc1O [4-hydroxy-3-methoxybenzaldehyde]
- Odor Threshold [1, 8]: 6.75E−06 μg/l air
- Odor Value [1, 8]: 6.28E+05
- Odor Threshold ([1]; Table 9, gourmand note): 6.75E−06 μg/l air
- Volatility [2, 8]: 4.24 μg/l air
- Type [2, 9]: Bottom
- Volatility ([2]; Table 9, gourmand note): 4.24 μg/l air
- Type [2, 10]: Bottom

SMILES: CC(=O)OC1CCC2C(C)(C)CCCC2(C)C1 (centres unmarked) [5,5,8a-trimethyldecahydro-2-naphthalenyl acetate]
- Odor Threshold ([1]; Table 10, woody note): 4.19E−04 μg/l air
- Type [2, 3]: Bottom
- Volatility ([2]; Table 10, woody note): 14.41 μg/l air

SMILES: CCC(CC(C)CC)=NO (centres unmarked) [5-METHYL-3-HEPTANONE OXIME]
- Odor Threshold [1, 4]: 8.80E−03 μg/l air
- Odor Value [1, 4]: 1.45E+04
- Odor Threshold [1, 8]: 8.80E−03 μg/l air
- Odor Value [1, 8]: 1.45E+04
- Odor Threshold (μg/l air) [1, 11]: 8.80E−03 μg/l air
- Volatility [2, 4]: 128.04 μg/l air
- Type [2, 6]: TOP (perfuming compounds having a volatility ranging from 70,000 to 100 μg/l in air are referred to as “top notes”)
- Volatility [2, 8]: 128.04 μg/l air
- Type [2, 9]: Top
- Type [2, 12]: Top
- Volatility (μg/l air) [2, 11]: 128.04 μg/l air

SMILES: CCCCC1CCCC(=O)O1 (centres unmarked) [5-NONANOLIDE]
- Odor Threshold [1, 4]: 1.16E−05 μg/l air
- Odor Value [1, 4]: 2.06E+06
- Odor Threshold [1, 8]: 1.16E−05 μg/l air
- Odor Value [1, 8]: 2.06E+06
- Odor Threshold ([1]; Table 9, gourmand note): 1.16E−05 μg/l air
- Volatility [2, 4]: 23.87 μg/l air
- Type [2, 6]: Bottom
- Volatility [2, 8]: 23.87 μg/l air
- Type [2, 9]: Bottom
- Volatility ([2]; Table 9, gourmand note): 23.87 μg/l air
- Type [2, 10]: Bottom

SMILES: CC(C)(C)c1ccc2c(c1)OCC(=O)CO2 [7-(2-methyl-2-propanyl)-2H-1,5-benzodioxepin-3(4H)-one]
- Odor Threshold (μg/l air) ([1]; Table 4, watery note): 1.53E−04 μg/l air
- Odor Value [1, 13]: 2.85E+04
- Odor Threshold (μg/l air) [1, 11]: 1.53E−04 μg/l air
- Volatility (μg/l air) ([2]; Table 4, watery note): 4.37 μg/l air
- Type [2, 14]: bottom (perfuming compounds having a volatility ranging from 49 to 0.1 μg/l in air are referred to as “bottom notes”)
- Type [2, 12]: Bottom
- Volatility (μg/l air) [2, 11]: 4.37 μg/l air

SMILES: CC(C)c1ccc2c(c1)OCC(=O)CO2 [7-ISOPROPYL-2H,4H-1,5-BENZODIOXEPIN-3-ONE]
- Odor Threshold (μg/l air) ([1]; Table 4, watery note): 3.20E−06 μg/l air
- Odor Value [1, 13]: 1.77E+07
- Volatility (μg/l air) ([2]; Table 4, watery note): 56.74 μg/l air
- Type [2, 14]: middle (perfuming compounds having a volatility ranging from 99 to 50 μg/l in air are referred to as “middle notes”)

SMILES: CCCc1ccc2c(c1)OCC(=O)CO2 [7-PROPYL-2H,4H-1,5-BENZODIOXEPIN-3-ONE]
- Odor Threshold (μg/l air) ([1]; Table 4, watery note): 6.43E−05 μg/l air
- Odor Value [1, 13]: 7.54E+04
- Odor Threshold (μg/l air) [1, 11]: 6.43E−05 μg/l air
- Volatility (μg/l air) ([2]; Table 4, watery note): 4.85 μg/l air
- Type [2, 14]: bottom (perfuming compounds having a volatility ranging from 49 to 0.1 μg/l in air are referred to as “bottom notes”)
- Type [2, 12]: Bottom
- Volatility (μg/l air) [2, 11]: 4.85 μg/l air

SMILES: CC1=CC2CC(C=O)C1CC2C(C)C (centres unmarked) [8-ISOPROPYL-6-METHYL-BICYCLO[2.2.2]OCT-5-ENE-2-CARBALDEHYDE]
- Odor Threshold (μg/l air) ([1]; Table 4, watery note): 7.11E−05 μg/l air
- Odor Value [1, 13]: 1.84E+06
- Odor Threshold (μg/l air) [1, 11]: 7.11E−05 μg/l air
- Volatility (μg/l air) ([2]; Table 4, watery note): 131.02 μg/l air
- Type [2, 14]: TOP (perfuming compounds having a volatility ranging from 70,000 to 100 μg/l in air are referred to as “top notes”)
- Type [2, 12]: Top
- Volatility (μg/l air) [2, 11]: 131.02 μg/l air

SMILES: C[C@@H]1CC[C@@H](C(C)(C)S)C(=O)C1 [(1R,4R)-8-MERCAPTO-3-P-MENTHANONE]
- Odor Threshold (μg/l air) [1, 11]: 3.43E−05 μg/l air
- Volatility [2, 4]: 155.12 μg/l air
- Type [2, 6]: TOP (perfuming compounds having a volatility ranging from 70,000 to 100 μg/l in air are referred to as “top notes”)
- Type [2, 12]: Top
- Volatility (μg/l air) [2, 11]: 155.12 μg/l air

SMILES: CC(C)OCCc1ccccc1 [(2-ISOPROPOXYETHYL)BENZENE]
- Odor Threshold (μg/l air) [1, 11]: 1.65E−03 μg/l air
- Volatility (μg/l air) [2]: 1714.82 μg/l air
- Type [2, 12]: Top

More lines, main results first:

- Volatility [2, 8]: 5525.83 μg/l air
- Type [2, 9]: Top
SMILES: CC=CC(=O)C(C)CC (centres unmarked) [5-METHYL-2-HEPTEN-4-ONE]
- Odor Threshold [1, 8]: 7.62E−07 μg/l air
- Odor Value [1, 8]: 7.26E+09

- Volatility ([2]; Table 9, gourmand note): 128.04 μg/l air
- Type [2, 10]: Top
SMILES: CCC(CC(C)CC)=NO (centres unmarked) [5-METHYL-3-HEPTANONEOXIME]
- Odor Threshold ([1]; Table 9, gourmand note): 8.80E−03 μg/l air

- Volatility [2, 4]: 26.88 μg/l air
- Type [2, 6]: Bottom
- Volatility (μg/l air) ([2]; Table 7, citrus note): 26.88 μg/l air
- Type [2, 7]: Bottom
SMILES: C=CCCCCCCCCO [9-DECEN-1-OL]
- Odor Threshold [1, 4]: 8.92E−03 μg/l air
- Odor Value [1, 4]: 3.01E+03
- Odor Threshold (μg/l air) ([1]; Table 7, citrus note): 8.92E−03 μg/l air
- Odor Value [1, 5]: 3.01E+03

- Volatility (μg/l air) ([2]; Table 4, watery note): 136.73 μg/l air
SMILES: C=CCCCCCCCCC=O [10-undecenal]
- Odor Threshold (μg/l air) ([1]; Table 4, watery note): 3.15E−03 μg/l air
- Odor Value [1, 13]: 4.34E+04
- Type [2, 14]: TOP (perfuming compounds having a volatility ranging from 70,000 to 100 μg/l in air are referred to as “top notes”)

- Volatility [2, 4]: 33708.26 μg/l air
- Volatility (μg/l air) ([2]; Table 7, citrus note): 33708.26 μg/l air
- Type [2, 7]: Top
- Type [2, 12]: Top
- Volatility (μg/l air) [2, 11]: 33708.26 μg/l air
SMILES: CCC/C=C/C=O [(2E)-2-HEXENAL]
- Odor Threshold (μg/l air) ([1]; Table 7, citrus note): 2.53E−03 μg/l air
- Odor Value [1, 5]: 1.33E+07
- Odor Threshold (μg/l air) [1, 11]: 2.53E−03 μg/l air
- Type [2, 6]: TOP (perfuming compounds having a volatility ranging from 70,000 to 100 μg/l in air are referred to as “top notes”)

- Volatility [2, 4]: 1.15 μg/l air
- Type [2, 6]: Bottom
- Type [2, 12]: Bottom
- Volatility (μg/l air) [2, 11]: 1.15 μg/l air
SMILES: CCCCCC/C(C=O)=C\c1ccccc1 [(2E)-2-benzylideneoctanal]
- Odor Threshold [1, 4]: 1.91E−03 μg/l air
- Odor Value [1, 4]: 6.01E+02
- Odor Threshold (μg/l air) [1, 11]: 1.91E−03 μg/l air

- Volatility (μg/l air) ([2]; Table 4, watery note): 98.76 μg/l air
- Type [2, 12]: Middle
- Volatility (μg/l air) [2, 11]: 98.76 μg/l air
SMILES: CC/C=C\CC/C=C/CO [(2E,6Z)-2,6-NONADIEN-1-OL]
- Odor Threshold (μg/l air) ([1]; Table 4, watery note): 3.22E−06 μg/l air
- Odor Value [1, 13]: 3.07E+07
- Odor Threshold (μg/l air) [1, 11]: 3.22E−06 μg/l air
- Type [2, 14]: middle (perfuming compounds having a volatility ranging from 99 to 50 μg/l in air are referred to as “middle notes”)

- Type [2, 12]: Top
- Volatility (μg/l air) [2, 11]: 632.43 μg/l air
SMILES: CC/C=C\CC/C=C/C=O [(2E,6Z)-2,6-NONADIENAL]
- Odor Threshold (μg/l air) [1, 11]: 1.46E−04 μg/l air
